Reference: patent publication US20240246942A1, “KINASE INHIBITORS FOR THE TREATMENT OF NEURODEGENERATIVE DISEASES” (priority 2020, published 2024)

Tests used:
Test in all cases: biochemical
[1] = target: T1, panel of 374 wild-type kinases (Homo sapiens, UniProt P37023); settings: read-out: % Enzyme Activity (relative to DMSO controls), ALK1/ACVRL1
T1 construct: purchased Reaction Biology Corporation

[2] = target: T2, panel of 374 wild-type kinases (Homo sapiens, UniProt P51817); settings: read-out: % Enzyme Activity (relative to DMSO controls), kinase PRKX
T2 construct: purchased Reaction Biology Corporation
T2 sequence (P51817 1-358): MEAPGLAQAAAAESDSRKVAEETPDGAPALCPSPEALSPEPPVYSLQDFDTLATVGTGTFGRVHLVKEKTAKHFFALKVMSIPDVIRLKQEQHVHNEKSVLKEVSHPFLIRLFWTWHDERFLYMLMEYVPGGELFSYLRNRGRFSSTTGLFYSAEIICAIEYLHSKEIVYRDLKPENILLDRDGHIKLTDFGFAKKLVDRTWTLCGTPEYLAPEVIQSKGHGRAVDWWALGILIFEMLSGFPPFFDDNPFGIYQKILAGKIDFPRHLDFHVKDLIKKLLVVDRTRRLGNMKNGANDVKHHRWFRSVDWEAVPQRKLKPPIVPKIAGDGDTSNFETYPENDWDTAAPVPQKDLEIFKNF

[3] = target: T3, panel of 374 wild-type kinases (Homo sapiens, UniProt Q9NY57); settings: read-out: % Enzyme Activity (relative to DMSO controls), kinase STK32B/YANK2
T3 construct: purchased Reaction Biology Corporation
T3 sequence (Q9NY57 whole entry): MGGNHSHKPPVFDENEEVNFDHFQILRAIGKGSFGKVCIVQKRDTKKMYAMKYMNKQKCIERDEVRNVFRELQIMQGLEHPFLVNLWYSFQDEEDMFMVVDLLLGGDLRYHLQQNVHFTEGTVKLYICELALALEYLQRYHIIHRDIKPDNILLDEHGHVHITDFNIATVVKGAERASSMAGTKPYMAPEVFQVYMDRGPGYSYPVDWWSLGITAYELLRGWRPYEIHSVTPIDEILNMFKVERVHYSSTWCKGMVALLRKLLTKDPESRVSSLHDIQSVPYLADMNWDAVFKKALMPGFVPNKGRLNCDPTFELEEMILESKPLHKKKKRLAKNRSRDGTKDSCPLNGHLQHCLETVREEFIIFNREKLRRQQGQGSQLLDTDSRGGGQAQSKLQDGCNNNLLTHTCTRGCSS

[4] = target: T4, panel of 374 wild-type kinases (Homo sapiens, UniProt P35916); settings: read-out: % Enzyme Activity (relative to DMSO controls), FLT4/VEGFR3
T4 construct: purchased Reaction Biology Corporation
T4 sequence (P35916 25-1363): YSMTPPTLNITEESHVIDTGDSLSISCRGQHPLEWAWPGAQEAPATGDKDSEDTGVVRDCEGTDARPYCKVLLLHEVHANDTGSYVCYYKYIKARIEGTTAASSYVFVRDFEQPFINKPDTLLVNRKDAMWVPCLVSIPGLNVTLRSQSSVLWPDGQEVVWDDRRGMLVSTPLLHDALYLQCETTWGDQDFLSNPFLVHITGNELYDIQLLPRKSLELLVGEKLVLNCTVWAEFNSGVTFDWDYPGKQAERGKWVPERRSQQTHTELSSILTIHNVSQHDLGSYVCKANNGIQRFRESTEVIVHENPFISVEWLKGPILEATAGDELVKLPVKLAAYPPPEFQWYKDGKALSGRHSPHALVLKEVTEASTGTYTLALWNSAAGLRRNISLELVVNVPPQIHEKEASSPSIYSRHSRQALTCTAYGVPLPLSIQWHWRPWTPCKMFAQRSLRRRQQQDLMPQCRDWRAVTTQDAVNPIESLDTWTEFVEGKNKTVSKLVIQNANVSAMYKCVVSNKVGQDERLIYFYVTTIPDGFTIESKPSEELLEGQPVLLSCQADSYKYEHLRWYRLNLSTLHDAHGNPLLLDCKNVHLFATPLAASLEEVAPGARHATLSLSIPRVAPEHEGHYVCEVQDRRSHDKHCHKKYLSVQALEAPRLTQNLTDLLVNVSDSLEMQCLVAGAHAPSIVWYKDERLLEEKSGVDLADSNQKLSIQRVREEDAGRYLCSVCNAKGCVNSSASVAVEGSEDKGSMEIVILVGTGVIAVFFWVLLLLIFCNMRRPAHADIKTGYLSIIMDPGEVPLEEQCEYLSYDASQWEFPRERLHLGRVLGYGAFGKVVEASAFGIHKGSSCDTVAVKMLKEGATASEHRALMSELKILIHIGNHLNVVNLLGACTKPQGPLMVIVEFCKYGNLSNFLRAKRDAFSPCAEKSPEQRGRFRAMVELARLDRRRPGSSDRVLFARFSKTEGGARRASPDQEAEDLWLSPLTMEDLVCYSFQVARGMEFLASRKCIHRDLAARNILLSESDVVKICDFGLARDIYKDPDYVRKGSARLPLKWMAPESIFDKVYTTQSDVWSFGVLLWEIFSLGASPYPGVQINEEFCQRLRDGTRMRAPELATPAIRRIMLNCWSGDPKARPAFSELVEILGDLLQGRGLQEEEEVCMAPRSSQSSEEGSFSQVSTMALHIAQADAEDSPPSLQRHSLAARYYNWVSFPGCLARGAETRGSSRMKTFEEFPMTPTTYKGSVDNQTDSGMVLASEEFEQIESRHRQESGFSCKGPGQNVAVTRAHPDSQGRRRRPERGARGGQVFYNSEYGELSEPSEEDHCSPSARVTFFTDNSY

[5] = target: T5, panel of 374 wild-type kinases (Homo sapiens, UniProt P07949); settings: read-out: % Enzyme Activity (relative to DMSO controls), kinase RET
T5 construct: purchased Reaction Biology Corporation
T5 sequence (P07949 29-1114): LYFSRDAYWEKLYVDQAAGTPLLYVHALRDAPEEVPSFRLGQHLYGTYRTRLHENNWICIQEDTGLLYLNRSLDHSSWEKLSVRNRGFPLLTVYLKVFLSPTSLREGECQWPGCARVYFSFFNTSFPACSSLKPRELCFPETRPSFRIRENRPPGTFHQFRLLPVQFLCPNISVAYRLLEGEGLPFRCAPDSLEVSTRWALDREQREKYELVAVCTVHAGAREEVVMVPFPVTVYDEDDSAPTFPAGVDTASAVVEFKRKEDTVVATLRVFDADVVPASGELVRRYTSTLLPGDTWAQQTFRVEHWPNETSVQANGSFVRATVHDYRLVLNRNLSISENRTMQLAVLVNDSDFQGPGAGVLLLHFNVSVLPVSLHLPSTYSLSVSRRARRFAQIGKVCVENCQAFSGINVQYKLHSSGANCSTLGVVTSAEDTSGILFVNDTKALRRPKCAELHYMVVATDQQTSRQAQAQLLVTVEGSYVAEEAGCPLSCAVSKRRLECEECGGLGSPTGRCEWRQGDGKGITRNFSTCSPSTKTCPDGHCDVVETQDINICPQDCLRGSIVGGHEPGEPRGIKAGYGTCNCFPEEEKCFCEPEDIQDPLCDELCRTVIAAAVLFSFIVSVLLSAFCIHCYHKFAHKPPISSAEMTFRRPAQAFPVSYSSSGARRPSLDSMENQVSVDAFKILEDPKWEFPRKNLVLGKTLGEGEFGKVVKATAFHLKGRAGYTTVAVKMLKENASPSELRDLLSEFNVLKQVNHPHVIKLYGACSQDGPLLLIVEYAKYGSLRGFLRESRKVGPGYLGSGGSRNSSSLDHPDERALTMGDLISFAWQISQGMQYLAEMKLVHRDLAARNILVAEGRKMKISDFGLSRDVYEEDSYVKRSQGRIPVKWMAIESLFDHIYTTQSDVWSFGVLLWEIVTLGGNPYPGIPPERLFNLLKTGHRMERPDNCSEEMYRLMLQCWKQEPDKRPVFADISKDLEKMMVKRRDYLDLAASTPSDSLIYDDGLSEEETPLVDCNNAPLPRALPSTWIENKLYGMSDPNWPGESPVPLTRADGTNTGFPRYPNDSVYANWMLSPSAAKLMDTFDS

[6] = target: T6, panel of 374 wild-type kinases (Homo sapiens, UniProt Q9P0L2); settings: read-out: % Enzyme Activity (relative to DMSO controls), MARK1
T6 construct: purchased Reaction Biology Corporation
T6 sequence (Q9P0L2 whole entry): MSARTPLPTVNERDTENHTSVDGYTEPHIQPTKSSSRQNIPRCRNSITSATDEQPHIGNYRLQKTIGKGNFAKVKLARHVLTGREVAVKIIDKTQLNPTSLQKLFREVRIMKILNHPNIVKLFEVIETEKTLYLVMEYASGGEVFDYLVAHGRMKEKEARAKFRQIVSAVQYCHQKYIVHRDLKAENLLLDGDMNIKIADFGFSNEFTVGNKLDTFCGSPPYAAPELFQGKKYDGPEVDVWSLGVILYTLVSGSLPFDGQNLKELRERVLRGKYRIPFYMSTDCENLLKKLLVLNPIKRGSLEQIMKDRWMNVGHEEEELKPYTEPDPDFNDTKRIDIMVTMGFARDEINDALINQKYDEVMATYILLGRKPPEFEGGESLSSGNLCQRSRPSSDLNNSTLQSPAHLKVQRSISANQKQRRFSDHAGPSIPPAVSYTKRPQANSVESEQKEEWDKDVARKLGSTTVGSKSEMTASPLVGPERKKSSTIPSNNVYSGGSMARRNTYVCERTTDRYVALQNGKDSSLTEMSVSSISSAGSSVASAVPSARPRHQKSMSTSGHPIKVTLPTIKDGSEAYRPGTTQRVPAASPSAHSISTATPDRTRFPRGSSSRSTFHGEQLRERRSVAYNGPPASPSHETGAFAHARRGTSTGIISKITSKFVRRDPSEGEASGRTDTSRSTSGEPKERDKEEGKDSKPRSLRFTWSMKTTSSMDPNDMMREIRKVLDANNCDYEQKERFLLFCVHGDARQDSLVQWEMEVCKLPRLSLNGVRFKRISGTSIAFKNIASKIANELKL

[7] = target: T7, panel of 374 wild-type kinases (Homo sapiens, UniProt P35626); settings: read-out: % Enzyme Activity (relative to DMSO controls), GRK3
T7 construct: purchased Reaction Biology Corporation
T7 sequence (P35626 1-688): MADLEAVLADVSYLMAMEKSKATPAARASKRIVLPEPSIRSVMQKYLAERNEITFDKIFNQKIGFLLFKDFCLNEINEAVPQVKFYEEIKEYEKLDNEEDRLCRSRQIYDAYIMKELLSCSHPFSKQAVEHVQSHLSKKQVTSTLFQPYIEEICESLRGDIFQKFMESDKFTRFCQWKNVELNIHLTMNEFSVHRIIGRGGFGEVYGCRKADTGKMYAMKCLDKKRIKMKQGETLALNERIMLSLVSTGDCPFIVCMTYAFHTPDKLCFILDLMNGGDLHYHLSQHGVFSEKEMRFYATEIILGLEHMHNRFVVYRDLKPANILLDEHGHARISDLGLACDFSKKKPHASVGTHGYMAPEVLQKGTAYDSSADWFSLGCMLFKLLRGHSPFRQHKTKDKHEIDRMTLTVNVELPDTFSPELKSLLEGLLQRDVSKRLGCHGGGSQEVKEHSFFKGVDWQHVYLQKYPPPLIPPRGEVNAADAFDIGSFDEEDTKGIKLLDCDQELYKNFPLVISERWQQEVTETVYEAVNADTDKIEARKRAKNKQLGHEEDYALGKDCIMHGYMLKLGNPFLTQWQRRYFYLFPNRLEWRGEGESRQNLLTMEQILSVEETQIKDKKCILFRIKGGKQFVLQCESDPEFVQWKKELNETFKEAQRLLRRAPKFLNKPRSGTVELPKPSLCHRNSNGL

[8] = target: T8, panel of 374 wild-type kinases (Homo sapiens, UniProt O75385); settings: read-out: % Enzyme Activity (relative to DMSO controls), kinase ULK1
T8 construct: purchased Reaction Biology Corporation
T8 sequence (O75385 1-1050): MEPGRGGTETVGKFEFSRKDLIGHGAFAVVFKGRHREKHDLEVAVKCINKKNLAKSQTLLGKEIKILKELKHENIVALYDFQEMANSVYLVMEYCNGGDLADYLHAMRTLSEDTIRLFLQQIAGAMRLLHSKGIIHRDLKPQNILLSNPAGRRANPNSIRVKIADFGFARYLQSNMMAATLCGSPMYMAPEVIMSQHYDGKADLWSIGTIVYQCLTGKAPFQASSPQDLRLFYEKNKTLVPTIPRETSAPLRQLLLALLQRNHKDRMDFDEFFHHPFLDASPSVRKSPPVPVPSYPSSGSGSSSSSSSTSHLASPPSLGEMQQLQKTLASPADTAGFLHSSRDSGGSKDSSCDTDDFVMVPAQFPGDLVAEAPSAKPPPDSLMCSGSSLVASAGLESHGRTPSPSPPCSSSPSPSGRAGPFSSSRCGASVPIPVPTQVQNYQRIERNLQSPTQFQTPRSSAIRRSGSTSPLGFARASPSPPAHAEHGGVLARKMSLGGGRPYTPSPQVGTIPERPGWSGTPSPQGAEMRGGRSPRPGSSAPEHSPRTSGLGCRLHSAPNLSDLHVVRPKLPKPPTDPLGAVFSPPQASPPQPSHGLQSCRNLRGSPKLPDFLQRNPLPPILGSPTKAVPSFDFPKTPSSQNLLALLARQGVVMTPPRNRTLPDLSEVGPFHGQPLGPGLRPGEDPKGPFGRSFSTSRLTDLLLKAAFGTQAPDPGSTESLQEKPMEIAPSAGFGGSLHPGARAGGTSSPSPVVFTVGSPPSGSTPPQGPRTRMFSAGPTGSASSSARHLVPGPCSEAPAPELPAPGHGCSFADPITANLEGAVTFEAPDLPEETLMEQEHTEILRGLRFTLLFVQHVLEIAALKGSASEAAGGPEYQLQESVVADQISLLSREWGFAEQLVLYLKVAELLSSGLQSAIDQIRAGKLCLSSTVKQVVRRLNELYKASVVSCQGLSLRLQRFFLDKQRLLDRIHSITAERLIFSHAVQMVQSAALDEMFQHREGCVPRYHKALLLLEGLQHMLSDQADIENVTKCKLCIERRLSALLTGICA

T1 sequence (P37023 22-503): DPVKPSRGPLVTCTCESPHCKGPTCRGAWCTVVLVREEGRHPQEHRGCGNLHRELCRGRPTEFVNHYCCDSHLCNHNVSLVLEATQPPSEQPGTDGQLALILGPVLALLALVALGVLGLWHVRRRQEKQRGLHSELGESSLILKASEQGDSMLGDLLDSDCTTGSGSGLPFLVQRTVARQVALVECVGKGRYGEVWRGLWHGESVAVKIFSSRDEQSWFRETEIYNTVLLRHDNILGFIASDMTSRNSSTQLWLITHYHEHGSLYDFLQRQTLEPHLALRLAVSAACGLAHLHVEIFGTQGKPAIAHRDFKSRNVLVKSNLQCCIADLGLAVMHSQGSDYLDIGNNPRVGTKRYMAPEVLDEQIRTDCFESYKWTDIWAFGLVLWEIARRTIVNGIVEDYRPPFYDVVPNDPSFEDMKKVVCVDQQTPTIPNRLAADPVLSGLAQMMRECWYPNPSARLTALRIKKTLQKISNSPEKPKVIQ

Row | Compound | remaining activity at 10 µM ([1]; 10 uM) [%] | remaining activity at 10 µM ([2]; 10 uM) [%] | remaining activity at 10 µM ([3]; 10 uM) [%] | remaining activity at 10 µM ([4]; 10 uM) [%] | remaining activity at 10 µM ([5]; 10 uM) [%] | remaining activity at 10 µM ([6]; 10 uM) [%] | remaining activity at 10 µM ([7]; 10 uM) [%] | remaining activity at 10 µM ([8]; 10 uM) [%] | remaining activity at 5 µM [1] [%] | remaining activity at 5 µM [2] [%] | remaining activity at 5 µM [3] [%] | remaining activity at 5 µM [4] [%] | remaining activity at 5 µM [5] [%] | remaining activity at 5 µM [6] [%] | remaining activity at 5 µM [7] [%] | remaining activity at 5 µM [8] [%]
1 | Cc1sc(C(=O)NC2COC2)cc1-n1cc(NC(=O)Nc2c(F)cccc2Cl)cn1 [Compound 27, 4-(4-(3-(2-chloro-6-fluorophenyl)ureido)-1H-pyrazol-1-yl)-5-methyl-N-(oxetan-3-yl)thiophene-2-carboxamide] | 78.7 | 87.5 | 89.8 | 81.9 | 113 | 95.3 | 107 | 77.3 |  |  |  |  |  |  |  | 
2 | O=C(Nc1cnn(-c2csc(C(=O)NC3COC3)c2)c1)Nc1c(F)cccc1Cl [Compound 25, 4-(4-(3-(2-chloro-6-fluorophenyl)ureido)-1H-pyrazol-1-yl)-N-(oxetan-3-yl)thiophene-2-carboxamide] |  |  |  |  |  |  |  |  | 120 | 91.5 | 103 | 86.6 | 98.1 | 108 | 101 | 93.9
3 | O=C(Nc1cnn(-c2csc(C(=O)NC3COC3)c2)c1)Nc1ccccc1Cl [Compound 17, 4-(4-(3-(2-chlorophenyl)ureido)-1H-pyrazol-1-yl)-N-(oxetan-3-yl)thiophene-2-carboxamide] |  |  |  |  |  |  |  |  | 107 | 104 | 122 | 93.8 | 97.8 | 96.3 | 102 | 134
